Reference: patent US7485455B2, “Nucleic acid encoding sodium channel subunit” (Wisconsin Alumni Research Foundation, priority 2002, dated 2009)

Test system: untransfected HEK cells (endogenous currents)
Conditions: incubation with mexiletine 100 μM for 24 hours, n=10, not significantly increased

## Cc1cccc(C)c1OCC(C)N (stereo not shown) [mexiletine]
  endogenous current density: 1.1±0.4 pA/pF
